Reference: US7417156B2, “Orally active, antimalarial, anticancer, artemisinin-derived trioxane dimers” (Johns Hopkins University, priority 2002, dated 2008)

Key:
[1] = tested on: MDA-MB-435; assay: NCI 60 cell line panel screen (SRB); format: cell-based, human
[2] = tested on: COLO 205; assay: NCI 60 cell line panel screen (SRB); format: cell-based, human
[3] = tested on: UACC-62; assay: NCI 60 cell line panel screen (SRB); format: cell-based, human
[4] = tested on: RPMI-8226; assay: NCI 60 cell line panel screen (SRB); format: cell-based, human
[5] = tested on: SF-295; assay: NCI 60 cell line panel screen (SRB); format: cell-based, human
[6] = tested on: OVCAR-5; assay: NCI 60 cell line panel screen (SRB); format: cell-based, human
[7] = tested on: A498; assay: NCI 60 cell line panel screen (SRB); format: cell-based, human
[8] = tested on: HCC-2998; assay: NCI 60 cell line panel screen (SRB); format: cell-based, human; conditions: HCC-2998 (Colon Cancer)
[9] = tested on: UO-31; assay: NCI 60 cell line panel screen (SRB); format: cell-based, human
[10] = tested on: SK-MEL-28; assay: NCI 60 cell line panel screen (SRB); format: cell-based, human
[11] = tested on: 786-0; assay: NCI 60 cell line panel screen (SRB); format: cell-based, human
[12] = tested on: NCI-H322M; format: cell-based
[13] = tested on: T-47D; assay: NCI 60 cell line panel screen (SRB); format: cell-based, human
[14] = tested on: OVCAR-4; assay: NCI 60 cell line panel screen (SRB); format: cell-based, human
[15] = tested on: malaria parasite; assay: Efficacy Study Blood Schizontocidal Activity; format: in vivo; parameters: ED90: unit not given here
[16] = tested on: TK-10; assay: NCI 60 cell line panel screen (SRB); format: cell-based, human
[17] = tested on: OVCAR-8; assay: NCI 60 cell line panel screen (SRB); format: cell-based, human
[18] = tested on: LOX IMVI; assay: NCI 60 cell line panel screen (SRB); format: cell-based, human
[19] = tested on: SK-MEL-5; assay: NCI 60 cell line panel screen (SRB); format: cell-based, human
[20] = tested on: SN12C; assay: NCI 60 cell line panel screen (SRB); format: cell-based, human
[21] = tested on: U251; assay: NCI 60 cell line panel screen (SRB); format: cell-based, human
[22] = tested on: SW-620; assay: NCI 60 cell line panel screen (SRB); format: cell-based, human
[23] = tested on: DU-145; assay: NCI 60 cell line panel screen (SRB); format: cell-based, human

CC1CCC2C(C)C(CC(COC(=O)c3cc[n+]([O-])cc3)CC3OC4OC5(C)CCC6C(C)CCC(C3C)C46OO5)OC3OC4(C)CCC1C32OO4 (centres unmarked) [Compound 13, bis-trioxane primary alcohol isonicotinate N-oxide]
Log10GI50 ([1]; Breast Cancer, MDA-MB-435): −7.62 | Log10LC50 ([1]; MDA-MB-435 (Breast Cancer), LC50: PG=−50): −4.46 log10M | Log10TGI50 ([1]; MDA-MB-435 (Breast Cancer), TGI: PG=0): −4.94 log10M | Log10LC50 ([2]; COLO 205 (Colon Cancer), LC50: PG=−50): >−4.30 log10M | Log10TGI50 ([2]; COLO 205 (Colon Cancer), TGI: PG=0): >−4.30 log10M | Log10GI50 ([2]; Colon Cancer, COLO 205): <−8.30 | Log10GI50 ([3]; Melanoma, UACC-62): −8.00 | Log10LC50 ([3]; UACC-62 (Melanoma), LC50: PG=−50): −4.66 log10M | Log10TGI50 ([3]; UACC-62 (Melanoma), TGI: PG=0): −5.07 log10M | Log10GI50 ([4]; Leukemia, RPMI-8226): <−8.30 | Log10LC50 ([4]; RPMI-8226 (Leukemia), LC50: PG=−50): >−4.30 log10M | Log10TGI50 ([4]; RPMI-8226 (Leukemia), TGI: PG=0): >−4.30 log10M | Log10GI50 ([5]; CNS Cancer, SF-295): −5.21 | Log10LC50 ([5]; SF-295 (CNS Cancer), LC50: PG=−50): −4.33 log10M | Log10TGI50 ([5]; SF-295 (CNS Cancer), TGI: PG=0): −4.77 log10M | Log10LC50 ([6]; OVCAR-5 (Ovarian Cancer), LC50: PG=−50): −4.66 log10M | Log10TGI50 ([6]; OVCAR-5 (Ovarian Cancer), TGI: PG=0): −5.14 log10M | Log10GI50 ([6]; Ovarian Cancer, OVCAR-5): <−8.30 | Log10LC50 ([7]; A498 (Renal Cancer), LC50: PG=−50): −4.74 log10M | Log10TGI50 ([7]; A498 (Renal Cancer), TGI: PG=0): −5.31 log10M | Log10GI50 ([7]; Renal Cancer, A498): −6.97 | Log10LC50 ([8]; LC50: PG=−50): −4.55 log10M | Log10TGI50 ([8]; TGI: PG=0): −4.91 log10M | Log10GI50 ([9]; Renal Cancer, UO-31): <−8.30 | Log10LC50 ([9]; UO-31 (Renal Cancer), LC50: PG=−50): >−4.30 log10M | Log10TGI50 ([9]; UO-31 (Renal Cancer), TGI: PG=0): −5.10 log10M | Log10GI50 ([10]; Melanoma, SK-MEL-28): −5.13 | Log10LC50 ([10]; SK-MEL-28 (Melanoma), LC50: PG=−50): −4.34 log10M | Log10TGI50 ([10]; SK-MEL-28 (Melanoma), TGI: PG=0): −4.73 log10M | Log10LC50 ([11]; 786-0 (Renal Cancer), LC50: PG=−50): −4.43 log10M | Log10TGI50 ([11]; 786-0 (Renal Cancer), TGI: PG=0): −4.94 log10M | Log10GI50 ([11]; Renal Cancer, 786-0): −7.81 | Log10LC50 ([12]; NCI-H322M (Non-Small Cell Lung Cancer), LC50: PG=−50): −4.59 log10M | Log10TGI50 ([12]; NCI-H322M (Non-Small Cell Lung Cancer), TGI: PG=0): −5.06 log10M | Log10GI50 ([12]; Non-Small Cell Lung Cancer, NCI-H322M): −6.26 | Log10GI50 ([13]; Breast Cancer, T-47D): <−8.30 | Log10LC50 ([13]; T-47D (Breast Cancer), LC50: PG=−50): >−4.30 log10M | Log10TGI50 ([13]; T-47D (Breast Cancer), TGI: PG=0): −5.36 log10M | Log10LC50 ([14]; OVCAR-4 (Ovarian Cancer), LC50: PG=−50): −4.42 log10M | Log10TGI50 ([14]; OVCAR-4 (Ovarian Cancer), TGI: PG=0): −4.93 log10M | Log10GI50 ([14]; Ovarian Cancer, OVCAR-4): <−8.30 | ED50 ([15]; Route: IV): 0.55 mg/kg | ED90 ([15]; Route: IV): 2.0 | ED50 ([15]; Route: PO): 4 mg/kg | ED90 ([15]; Route: PO): 9.0 | efficacy relative to sodium artesunate in words ([15]; orally and i.v.): more efficacious | Log10GI50 ([16]; Renal Cancer, TK-10): <−8.30 | Log10LC50 ([16]; TK-10 (Renal Cancer), LC50: PG=−50): −4.53 log10M | Log10TGI50 ([16]; TK-10 (Renal Cancer), TGI: PG=0): −5.34 log10M | Log10LC50 ([17]; OVCAR-8 (Ovarian Cancer), LC50: PG=−50): >−4.30 log10M | Log10GI50 ([17]; Ovarian Cancer, OVCAR-8): −7.69 | Log10LC50 ([18]; LOX IMVI (Melanoma), LC50: PG=−50): −5.78 log10M | Log10TGI50 ([18]; LOX IMVI (Melanoma), TGI: PG=0): <−8.30 log10M | Log10GI50 ([18]; Melanoma, LOX IMVI): <−8.30 | Log10GI50 ([19]; Melanoma, SK-MEL-5): <−8.30 | Log10LC50 ([19]; SK-MEL-5 (Melanoma), LC50: PG=−50): −4.73 log10M | Log10TGI50 ([19]; SK-MEL-5 (Melanoma), TGI: PG=0): −5.28 log10M | Log10GI50 ([20]; Renal Cancer, SN12C): <−8.30 | Log10LC50 ([20]; SN12C (Renal Cancer), LC50: PG=−50): −4.72 log10M | Log10TGI50 ([20]; SN12C (Renal Cancer), TGI: PG=0): −5.29 log10M | Log10GI50 ([21]; CNS Cancer, U251): <−8.30 | Log10LC50 ([21]; U251 (CNS Cancer), LC50: PG=−50): −4.69 log10M | Log10TGI50 ([21]; U251 (CNS Cancer), TGI: PG=0): −5.08 log10M | Log10GI50 ([22]; Colon Cancer, SW-620): <−8.30 | Log10LC50 ([22]; SW-620 (Colon Cancer), LC50: PG=−50): −4.53 log10M | Log10TGI50 ([22]; SW-620 (Colon Cancer), TGI: PG=0): −5.05 log10M | Log10TGI50 ([23]; DU-145 (Prostate Cancer), TGI: PG=0): −5.00 log10M | Log10GI50 ([23]; Prostate Cancer, DU-145): −7.48
